This note sets out measurements from patent US10273242B2, “Compound inhibiting activities of BTK and/or JAK3 kinases” (BEIJING HANMI PHARMACEUTICAL CO., LTD., priority 2013, dated 2019).

Molecules are shown by their SMILES.

The target in one experiment is T1, BTK kinase (Homo sapiens, UniProt Q06187).
T1 construct: purchased Invitrogen PV3363
Nature of the experiment: BTK kinase activity inhibition assay (ADP-Glo). Type of experiment: biochemical. The following applies: ATP 50 μM. How it is done:
The BTK kinase (purchased from Invitrogen, No.: PV3363) was diluted with reaction buffer (40 mM Tris-HCl, pH 7.5; 20 mM MgCl2, 0.1 mg/ml BSA; 1 mM DTT; 2 mM MnCl2) to 2 times of the final concentration (which is 1.1 ng/μL) and added with 5 μL/well to a 96-well plate. The compounds of the present invention were serial diluted with deionized water to four times (i.e., 40 μM, 4 μM, 0.4 μM, 80 nM, 16 nM, 3.2 nM, respectively) of the final concentrations (10 μM, 1 μM, 0.1 μM, 20 nM, 4 nM, 0.8 nM, respectively), and added at 2.5 μL/well to the test wells of the 96-well plate. After incubation at 25° C. for 10 minutes, ATP (50 μM) (purchased from Promega, No.: V9102) and 0.2 μg/μL of Poly E4Y1 (purchased from Sigma, No.: P0275-25MG) were added with 2.5 μL/well and incubated at 25° C. for 120 minutes. After the reaction was completed, 10 μL of the ADP-Glo reagent (ADP-Glo™ kinase assay kit, purchased from Promega, No.: V9102) was added to each well, and reacted at 25° C. for 40 minutes. Then 20 μL of the ADP-Glo kinase detection reagent was added to each well and reacted at 25° C. for 30 minutes. The kinase activity was detected by luminescence using the ADP-Glo kinase assay kit according to the manufacture's instruction, and IC50 values of the compounds of the present invention were calculated.
On the technique in general: ADP-Glo turns the ADP formed in a reaction into a luminescent signal.

For the next experiment, the target named is T2, JAK3 kinase (Homo sapiens, UniProt P52333).
T2 construct: purchased SignalChem J03-11G
Nature of the experiment: JAK3 kinase activity inhibition assay (ADP-Glo). Format: biochemical. Particulars: ATP 10 μM. The procedure:
The JAK3 kinase (purchased from SignalChem, No.: J03-11G) was diluted with reaction buffer (40 mM Tris-HCl, pH 7.5; 20 mM MgCl2, 0.1 mg/ml BSA; 1 mM DTT) to 2 times of the final concentration (which is 0.5 ng/μL) and added with 5 μL/well to a 96-well plate. The compounds of the present invention were serial diluted with deionized water to four times (i.e., 40 μM, 4 μM, 0.4 μM, 80 nM, 16 nM, 3.2 nM, respectively) of the final concentrations (10 μM, 1 μM, 0.1 μM, 20 nM, 4 nM, 0.8 nM, respectively), and added with 2.5 μL/well to the test wells of the 96-well plate. After incubation at 25° C. for 10 minutes, 10 μM of ATP (purchased from Promega, No.: V9102) and 0.2 μg/μL of Poly E4Y1 (purchased from Sigma, No.: P0275-25MG) were added at 2.5 μL/well and reacted at 25° C. for 60 minutes. After the reaction was completed, 10 μL of the ADP-Glo reagent (ADP-Glo™ kinase assay kit, purchased from Promega, No.: V9102) was added to each well and reacted at 25° C. for 40 minutes. Then 20 μL of the ADP-Glo kinase detection reagent was added to each well and reacted at 25° C. for 30 minutes. The kinase activity was detected by luminescence using the ADP-Glo kinase assay kit according to the manufacture's instruction, and IC50 values of the compounds of the present invention were calculated.

The next experiment relates to CTLL-2 cells. Nature of the experiment: IL-2 induced CTLL-2 cell proliferation assay (CCK-8). Format: cell-based. The following applies: Mus musculus, IL-2 induced proliferation, 24 hours. The procedure:
The compounds of the present invention were serial diluted with RPMI-1640 complete medium (purchased from Gibco, No.: 22440) to three times (i.e., 3 μM, 0.6 μM, 120 nM, 24 nM, 4.8 nM, 0.96 nM, respectively) of the final concentrations (1 μM, 0.2 μM, 40 nM, 8 nM, 1.6 nM, 0.32 nM, respectively), and added at 50 μL/well to the test wells of a 96-well plate. Control wells with IL-2 (referred to as IL-2^+) (IL-2 was purchased from R & D, No.: 402-ML-020/CF) and without IL-2 (referred to as IL-2^−) (with addition of 50 μL of the medium). CTLL-2 cells (purchased from ATCC, No.: TIB-214) at the logarithmic growth phase were rinsed with PBS buffer (pH 7.2), then resuspended in RPMI-1640 complete medium without IL-2, and seeded at 50000 cells/50 μL/well in the 96-well plate. The plate was placed at 37° C., 5% CO2 and pre-incubated for 1 hour. Then, to the test wells and the IL-2^+ control well RPMI-1640 complete medium containing IL-2 (50 μL/well) was added, while to the IL-2^− control well RPMI-1640 complete medium without IL-2 (50 μL/well) was added. The cells were stimulated for 24 hours at 37° C., 5% CO2. After this, the 96-well plate was taken out from the incubator. […] Absorption was determined at 450 nm of wavelength, and IC50 values of the compounds of the present invention were thereby calculated.

T2 sequence (P52333 781-1124 limits assumed): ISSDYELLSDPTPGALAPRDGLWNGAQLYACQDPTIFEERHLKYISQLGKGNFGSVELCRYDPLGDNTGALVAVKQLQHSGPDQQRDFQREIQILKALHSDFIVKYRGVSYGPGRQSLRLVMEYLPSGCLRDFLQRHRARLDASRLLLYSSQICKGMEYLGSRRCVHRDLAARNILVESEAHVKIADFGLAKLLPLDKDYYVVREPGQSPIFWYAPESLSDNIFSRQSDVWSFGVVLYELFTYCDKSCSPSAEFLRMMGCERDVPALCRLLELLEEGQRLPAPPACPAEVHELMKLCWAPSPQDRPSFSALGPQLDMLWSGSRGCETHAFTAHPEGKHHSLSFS
T1 sequence (Q06187 whole entry): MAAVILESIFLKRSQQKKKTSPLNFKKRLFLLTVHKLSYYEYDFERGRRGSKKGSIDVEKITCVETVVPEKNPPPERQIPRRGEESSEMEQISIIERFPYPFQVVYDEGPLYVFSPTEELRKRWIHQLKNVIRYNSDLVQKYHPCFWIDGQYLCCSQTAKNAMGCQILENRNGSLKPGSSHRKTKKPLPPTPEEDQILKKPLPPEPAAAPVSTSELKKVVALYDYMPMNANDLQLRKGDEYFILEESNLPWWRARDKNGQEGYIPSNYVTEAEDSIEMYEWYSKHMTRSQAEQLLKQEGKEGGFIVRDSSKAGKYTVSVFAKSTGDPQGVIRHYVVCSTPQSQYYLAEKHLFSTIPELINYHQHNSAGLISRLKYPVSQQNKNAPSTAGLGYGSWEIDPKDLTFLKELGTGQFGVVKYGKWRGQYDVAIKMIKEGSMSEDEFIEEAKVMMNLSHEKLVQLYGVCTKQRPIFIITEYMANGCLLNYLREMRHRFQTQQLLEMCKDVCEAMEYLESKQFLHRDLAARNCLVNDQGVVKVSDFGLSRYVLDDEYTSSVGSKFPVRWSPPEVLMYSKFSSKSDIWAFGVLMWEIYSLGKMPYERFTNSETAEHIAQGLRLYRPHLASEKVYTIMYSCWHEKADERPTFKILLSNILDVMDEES

With `C=CC(=O)N1CC[C@@H](Nc2nc(Nc3cc(C)ns3)nn3cccc23)C1` [Example 137], the results for the half-maximal inhibitory concentration (IC50) against BTK kinase, against JAK3 kinase and in the experiment on CTLL-2 cells were not above 50 nM, not above 10 nM and 100 to 1000 nM, respectively.
For the compound `C=CC(=O)N1CCC[C@@H](Nc2nc(Nc3cc(C)ns3)nn3cccc23)C1` [Example 134, (R)-1-(3-((2-((3-methyl-isothiazol-5-yl)amino)pyrrolo[2,1-f][1,2,4]triazin-4-yl)amino)piperidin-1-yl)prop-2-en-1-one], the results for the half-maximal inhibitory concentration (IC50) against BTK kinase, against JAK3 kinase and in the experiment with CTLL-2 cells were not above 50 nM, not above 10 nM and not above 100 nM, respectively.

A word on the IC50: it is the concentration at which inhibition is half-maximal.
